For the experiment, the system named is E. coli K5, bacterial growth. As to the kind of experiment: K5 capsule formation inhibitors tested for E. coli K5 growth effect in follow-up (AID 624061). To be noted: stronger effect = lower value.

We go through 1 molecule from PubChem BioAssay AID624061 (Southern Research Specialized Biocontainment Screening …, 2012).

SMILES strings stand for the structures.

In the case of `CCOc1ccc(-c2cc(NC(=O)c3c(F)cccc3F)c(C(=O)O)s2)cc1`, the bacterial growth was 109% (at 100 µM) and 106% (growth, at 50 µM).
